Marks after values point to notes of the source that are not given here. Square brackets hold non-standard residues; d marks the D form. * marks the point of attachment. His(Trt) = N[C@@H](Cc1cn(C(c2ccccc2)(c2ccccc2)c2ccccc2)cn1)C(=O)O; Pbf = Cc1c(C)c(S(=O)(=O)*)c(C)c2c1OC(C)(C)C2; code Z = not defined here; Cbz = O=C(OCc1ccccc1)*; Boc = CC(C)(C)OC(=O)*; OtBu = CC(C)(C)O*; tBu = CC(C)(C)*
Legend:
Assay type in all cases: biochemical
Alcalase CLEA [1] = biological target: T1, Alcalase CLEA (Bacillus licheniformis, UniProt P00780); assay: Hydrolysis of tetrapeptide tert-butyl ester by Alcalase CLEA in NMP/buffer (Example 2); conditions: 0.05 mmol, 5 mg Alcalase CLEA, NMP/phosphate buffer pH 8 1:1, 40° C., 17 h
T1 construct: purchased CLEA Technologies B. V., Delft, The Netherlands
T1 sequence (P00780 106-379): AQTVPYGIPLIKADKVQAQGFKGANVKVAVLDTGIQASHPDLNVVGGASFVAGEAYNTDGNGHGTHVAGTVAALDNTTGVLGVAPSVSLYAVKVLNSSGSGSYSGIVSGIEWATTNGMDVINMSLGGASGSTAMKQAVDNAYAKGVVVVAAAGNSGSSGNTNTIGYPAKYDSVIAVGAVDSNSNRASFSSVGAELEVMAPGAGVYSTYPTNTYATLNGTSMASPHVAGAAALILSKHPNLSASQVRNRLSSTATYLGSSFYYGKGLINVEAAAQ
Description: 0.05 mmol of Boc-Gly-Phe-Phe-Leu-OBu^t was dissolved in a thermostated mixture of 2.5 ml NMP and 2.5 ml phosphate buffer 0.1M pH 8. To this solution 5 mg of Alcalase CLEA were added. The reaction mixture was incubated at 40° C. for a total of 17 hours. Substrate conversion is determined by HPLC. The reaction resulted after 17 h in >95% yield of Boc-Gly-Phe-Phe-Leu-OH.

Alcalase CLEA [2] = biological target: T1, Alcalase CLEA; assay: Identification of peptide substrates susceptible to endopeptidic cleavage (Example 5)
Description: General procedure Alcalase CLEA:
0.1 mmol of each of the tetrapeptides (or tetrapeptide mixtures) were dissolved in 2.5 ml DMF. To this solution 5 mg of enzyme were added along with 2.5 ml phosphate buffer 0.1 M pH 7 and were added to the previous solution. The reaction mixture was incubated at 40° C. Reaction mixtures were analysed after 2 hours and 6 hours by HPLC. In case the reaction had not reached completion additional portions of enzyme [5 mg each] were added at the end of six hours and overnight (approx. 24 hours of reaction). The last aliquot was analysed by LC/MS to verify the presence of the desired compound and of any impurities being Z-Val-Val-X-OH and/or H-X-Leu-OH.

[3] = biological target: T2, subtilisin A (S. Carlsberg) (Bacillus licheniformis, UniProt P00780); assay: Hydrolysis of C-terminal tert-butyl esters by free subtilisin A (Example 1); conditions: 0.1 mmol peptide, 5 mg enzyme, DMF/phosphate buffer 0.1 M 1:1, 40° C., 2 hours, HPLC
T2 construct: purchased Sigma Aldrich
T2 sequence (P00780 106-379): T1 sequence (P00780 106-379)
Description: (§1) General Procedure Subtilisin A:
0.1 mmol of each of the peptides was dissolved in a thermostated mixture of 2.5 ml DMF and 2.5 ml phosphate buffer 0.1 M pH 7.5 mg of enzyme were added to the peptide solution. The reaction mixture was incubated at 40° C. for a total of two hours. The reaction mixtures were analysed after 2 hours using HPLC.

Alcalase CLEA [4] = biological target: T1, Alcalase CLEA; assay: Deprotection of model dipeptides by Alcalase CLEA (Example 3); conditions: 0.1 mmol, 5 mg enzyme, 50 v/v % DMF/phosphate buffer pH 7, 40° C., 6 hours
Text: A person skilled in the art can easily identify suitable substrates, for instance by performing a simple test hydrolysis of a selected peptide comprising a C-terminal tert-butyl ester functionality under suitable conditions as described herein before and following conversion e.g. by HPLC techniques. It has been found by hydrolysis of model dipeptides of the general structure Z-Val-X-OBu^t in the presence of Alcalase CLEA and 50% v/v of DMF (see for details Example 3) that the reactivity for these model substrates comprising a C-terminal tert-butyl ester functionality can be divided into four categories:
General Procedure Alcalase CLEA:
(§2) 0.1 mmol of each of the peptides was dissolved in 2.5 ml DMF. To this solution 5 mg of enzyme were added along with 2.5 ml phosphate buffer 0.1M pH 7. The reaction mixture was incubated at 40° C. for a total of six hours. The reaction mixtures were analysed after 6 hours using HPLC and LC/MS.

Subtilisin A [5] = biological target: T3, Subtilisin A (Bacillus licheniformis, UniProt P00780); assay: Deprotection of model dipeptides by Subtilisin A (Example 3); conditions: 0.1 mmol, 5 mg enzyme, 50 v/v % DMF/phosphate buffer pH 7, 40° C., 6 hours
T3 construct: purchased Novozymes
T3 sequence (P00780 106-379): T1 sequence (P00780 106-379)
Description: as §1
as §2, with “DMF.” for “DMF. To this solution”, “dissolved in” for “added along with”, “0.1 M” for “0.1M”, “7 and were added to the peptide solution.” for “7.”

Subtilisin A [6] = biological target: T3, Subtilisin A; assay: Optimization of the amount of enzyme (Example 4); conditions: 2 h
Description: 0.1 mmol of each of the peptides was dissolved in 2.5 ml IDMF. Subtilisin A was dissolved in 2.5 ml phosphate buffer 0.1 M pH 7 and added to the peptide solution. The reaction mixture was incubated at 40° C. The reaction mixtures were sampled at the indicated reaction times and analysed by HPLC. When needed extra portions of enzyme were added at 2-hour intervals.

Alcalase CLEA [7] = biological target: T1, Alcalase CLEA; assay: Scaling up of the procedure (Example 6); conditions: 1 mmol, 3x25 mg Alcalase CLEA, 50% DMF, pH 7, 40° C., 6 days
Description: To a stirred solution of 606 mg (1 mmol) Z-Val-Trp-Leu-OBu^t in 25 ml DMF 25 mg of Alcalase CLEA were added along with 25 ml of phosphate buffer 0.1 M pH 7. The mixture was stirred at 40° C. The reaction progress was monitored by HPLC. Extra portions of enzyme (25 mg of Alcalase CLEA each) were added after 24 hours and after 48 hours. After 6 days the reaction was stopped. The reaction mixture was acidified to pH 2 and DMF was evaporated. The product was extracted with ethyl acetate. The organic layer was dried using sodium sulphate, concentrated in vacuo and the final product precipitated from heptane.

[8] = 48 h, extra 5 mg enzyme portions after 6 h and approx. 24 h
[9] = 24 h, extra 5 mg enzyme after 6 h
[10] = 2 h, 5 mg Alcalase CLEA, 50% DMF, pH 7, 40° C.

Boc-Gly-Phe-Phe-Leu-OBu^t (Boc-GFFL-OtBu; SMILES CC(C)C[C@H](NC(=O)[C@H](Cc1ccccc1)NC(=O)[C@H](Cc1ccccc1)NC(=O)CNC(=O)OC(C)(C)C)C(=O)OC(C)(C)C)
yield of Boc-Gly-Phe-Phe-Leu-OH (substrate conversion by HPLC) (Alcalase CLEA [1]): > 95%

Cbz-VVE(OtBu)L-OtBu
Ratio Desired Product vs. Substrate (% area) (Alcalase CLEA [2]; [8]): 100/0

Cbz-VVK(Boc)L-OtBu
Ratio Desired Product vs. Substrate (% area) (Alcalase CLEA [2]; [8]): 100/0

Cbz-VVR(Pbf)L-OtBu
Ratio endopeptidase Impurity vs. Desired Product (% area), impurity H-X-Leu-OH (Alcalase CLEA [2]; 24 h): 1/99 (H-X-Leu-OH)
Ratio Desired Product vs. Substrate (% area) (Alcalase CLEA [2]; [8]): 100/0

Cbz-VVRL-OtBu
Ratio Desired Product vs. Substrate (% area) (Alcalase CLEA [2]; 6 h): 100/0 ^1)

Cbz-VVVL-OtBu
Ratio Desired Product vs. Substrate (% area) (Alcalase CLEA [2]; 6 h): 100/0 ^1)
Ratio Desired Product vs. Substrate (% area) (Alcalase CLEA [2]; [9]): 100/0 ^1)
Ratio Desired Product vs. Substrate (% area) (Alcalase CLEA [2]; [8]): 100/0

Cbz-VVW(Boc)L-OtBu
Ratio Desired Product vs. Substrate (% area) (Alcalase CLEA [2]; [10]): 3/97
Ratio Desired Product vs. Substrate (% area) (Alcalase CLEA [2]; [8]): 100/0

Cbz-Val-Ala-OtBu
Product/Substrate (% area) [3]: 100/0
Product vs. Substrate (% area), Alcalase CLEA (Alcalase CLEA [4]): 100/0
Product vs. Substrate (% area), Subtilisin A (Subtilisin A [5]): 100/0

Cbz-Val-Asn-OtBu
Product vs. Substrate (% area), Alcalase CLEA (Alcalase CLEA [4]): 100/0

Cbz-Val-Gln-OtBu
Product vs. Substrate (% area), Alcalase CLEA (Alcalase CLEA [4]): 100/0
Product vs. Substrate (% area), Subtilisin A (Subtilisin A [5]): 100/0

Cbz-Val-Ile-OtBu
Product vs. Substrate (% area), Alcalase CLEA (Alcalase CLEA [4]): traces of product
Product vs. Substrate (% area), Subtilisin A (Subtilisin A [5]): 0/100

Cbz-Val-Leu-OtBu
Product vs. Substrate (% area), Alcalase CLEA (Alcalase CLEA [4]): 98/2
Product vs. Substrate (% area), Subtilisin A (Subtilisin A [5]): 100/0
Product vs. Substrate (% area) (Subtilisin A [6]; 2.5 mg enzyme): 100/0
Product vs. Substrate (% area) (Subtilisin A [6]; 5 mg enzyme): 100/0

Cbz-Val-Met-OtBu
Product vs. Substrate (% area), Subtilisin A (Subtilisin A [5]): 100/0

Cbz-Val-Pro-OtBu
Product vs. Substrate (% area), Alcalase CLEA (Alcalase CLEA [4]): 0/100
Product vs. Substrate (% area), Subtilisin A (Subtilisin A [5]): 0/100

Cbz-Val-Ser-OtBu
Product vs. Substrate (% area), Subtilisin A (Subtilisin A [5]): 100/0

Cbz-Val-Thr(tBu)-OtBu
Product vs. Substrate (% area), Alcalase CLEA (Alcalase CLEA [4]): 0/100
Product vs. Substrate (% area), Subtilisin A (Subtilisin A [5]): 0/100

Cbz-Val-Trp-Leu-OtBu
endopeptidase-related impurities in the final compound (HPLC and LC/MS) (Alcalase CLEA [7]): No endopeptidase-related impurities were identified

Cbz-Val-[His(Trt)]-OtBu
Product vs. Substrate (% area), Alcalase CLEA (Alcalase CLEA [4]): 0/100
Product vs. Substrate (% area), Subtilisin A (Subtilisin A [5]): 0/100

Z-Val-Val-Ala-Leu-OBu^t ({code Z}-VVAL-OtBu; reading uncertain; also: printed as Z-Val-Val-Ala-Leu-OBu^t) [model tetrapeptide Z-Val-Val-X-Leu-OBu^t, X=Ala, tested in mix A]
Ratio Desired Product vs. Substrate (% area) (Alcalase CLEA [2]; 6 h): 100/0 ^1)

Z-Val-Val-Asn-Leu-OBu^t ({code Z}-VVNL-OtBu; reading uncertain; also: printed as Z-Val-Val-Asn-Leu-OBu^t) [model tetrapeptide Z-Val-Val-X-Leu-OBu^t, X=Asn, tested in mix B]
Ratio Desired Product vs. Substrate (% area) (Alcalase CLEA [2]; [10]): 100/0
Ratio Desired Product vs. Substrate (% area) (Alcalase CLEA [2]; 6 h): 100/0
Ratio Desired Product vs. Substrate (% area) (Alcalase CLEA [2]; [9]): 100/0
Ratio Desired Product vs. Substrate (% area) (Alcalase CLEA [2]; [8]): 100/0

Z-Val-Val-Gln-Leu-OBu^t ({code Z}-VVQL-OtBu; reading uncertain; also: printed as Z-Val-Val-Gln-Leu-OBu^t) [model tetrapeptide Z-Val-Val-X-Leu-OBu^t, X=Gln, tested in mix A]
Ratio Desired Product vs. Substrate (% area) (Alcalase CLEA [2]; 6 h): 100/0 ^1)

Z-Val-Val-Leu-Leu-OBu^t ({code Z}-VVLL-OtBu; reading uncertain; also: printed as Z-Val-Val-Leu-Leu-OBu^t) [model tetrapeptide Z-Val-Val-X-Leu-OBu^t, X=Leu, tested in mix A]
Ratio Desired Product vs. Substrate (% area) (Alcalase CLEA [2]; 6 h): 100/0 ^1)

Z-Val-Val-Met-Leu-OBu^t ({code Z}-VVML-OtBu; reading uncertain; also: printed as Z-Val-Val-Met-Leu-OBu^t)
Ratio endopeptidase Impurity vs. Desired Product (% area), impurity Z-Val-Val-X-OH (Alcalase CLEA [2]; 24 h): 72/28 (Z-Val-Val-X-OH)
Ratio Desired Product vs. Substrate (% area) (Alcalase CLEA [2]; [9]): 100/0

Z-Val-Val-Phe-Leu-OBu^t ({code Z}-VVFL-OtBu; reading uncertain; also: printed as Z-Val-Val-Phe-Leu-OBu^t) [model tetrapeptide Z-Val-Val-X-Leu-OBu^t, X=Phe, tested in mix B]
Ratio Desired Product vs. Substrate (% area) (Alcalase CLEA [2]; [10]): 23/77
Ratio Desired Product vs. Substrate (% area) (Alcalase CLEA [2]; 6 h): 81/19
Ratio Desired Product vs. Substrate (% area) (Alcalase CLEA [2]; [8]): 100/0

Z-Val-Val-Ser-Leu-OBu^t ({code Z}-VVSL-OtBu; reading uncertain; also: printed as Z-Val-Val-Ser-Leu-OBu^t) [model tetrapeptide Z-Val-Val-X-Leu-OBu^t, X=Ser, tested in mix A]
Ratio Desired Product vs. Substrate (% area) (Alcalase CLEA [2]; 6 h): 100/0 ^1)

Z-Val-Val-Trp-Leu-OBu^t ({code Z}-VVWL-OtBu; reading uncertain; also: printed as Z-Val-Val-Trp-Leu-OBu^t) [model tetrapeptide Z-Val-Val-X-Leu-OBu^t, X=Trp, tested in mix D]
Ratio endopeptidase Impurity vs. Desired Product (% area), impurity H-X-Leu-OH (Alcalase CLEA [2]; 24 h): 2/98 (H-X-Leu-OH)
Ratio endopeptidase Impurity vs. Desired Product (% area), impurity H-X-Leu-OH (Alcalase CLEA [2]; 48 h): 6/94 (H-X-Leu-OH)

Z-Val-Val-Tyr-Leu-OBu^t ({code Z}-VVYL-OtBu; reading uncertain; also: printed as Z-Val-Val-Tyr-Leu-OBu^t) [model tetrapeptide Z-Val-Val-X-Leu-OBu^t, X=Tyr, tested in mix B]
Ratio Desired Product vs. Substrate (% area) (Alcalase CLEA [2]; [8]): 100/0
